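Dose response: 5 concentrations. Exposure: 48 h. Format: 96-well plates. Endpoint: linear interpolation; highest concentration if not reached. TGI is the concentration that stops growth completely.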
Legend:
Assay in all cases: NCI-60 cell line screen, 48 h
SNB-78 CNS = test system: SNB-78 CNS
M19-MEL melanoma = test system: M19-MEL melanoma
DMS 114 small cell lung = test system: DMS 114 small cell lung
HOP-18 NSCLC = test system: HOP-18 NSCLC
XF 498 CNS = test system: XF 498 CNS
DMS 273 small cell lung = test system: DMS 273 small cell lung
LXFL 529 NSCLC = test system: LXFL 529 NSCLC
HOP-62 NSCLC = test system: HOP-62 NSCLC
SF-295 CNS = test system: SF-295 CNS
SF-268 CNS = test system: SF-268 CNS
DLD-1 colon = test system: DLD-1 colon
IGROV1 ovarian = test system: IGROV1 ovarian
KM20L2 colon = test system: KM20L2 colon
RXF-631 renal = test system: RXF-631 renal
HS 578T breast = test system: HS 578T breast

| SMILES | TGI (SNB-78 CNS) | TGI (M19-MEL melanoma) | TGI (DMS 114 small cell lung) | TGI (HOP-18 NSCLC) | TGI (XF 498 CNS) | TGI (DMS 273 small cell lung) | TGI (LXFL 529 NSCLC) | TGI (HOP-62 NSCLC) | TGI (SF-295 CNS) | TGI (SF-268 CNS) | TGI (DLD-1 colon) | TGI (IGROV1 ovarian) | TGI (KM20L2 colon) | TGI (RXF-631 renal) | TGI (HS 578T breast) |
| --- | --- | --- | --- | --- | --- | --- | --- | --- | --- | --- | --- | --- | --- | --- | --- |
| O=C1C(Cl)C(c2ccc(O)cc2)N1n1cnc2ccccc2c1=O (centres undefined) | > 100 µM | 46.9 µM | > 81 µM | > 100 µM | > 66.8 µM | > 100 µM | 39.5 µM | > 100 µM | > 100 µM | > 100 µM | 55.3 µM | > 100 µM | > 100 µM | – | – |
| CN1CCCS/C1=C1/SC(=S)N(c2ccccc2)C1=O | > 100 µM | > 100 µM | > 100 µM | > 100 µM | > 100 µM | > 100 µM | > 100 µM | > 100 µM | > 100 µM | > 100 µM | > 100 µM | > 100 µM | > 100 µM | > 100 µM | – |
| CCCCCCCCCCCCCCCCCCN(C)CC(COC)OP(=O)([O-])OCC[N+](C)(C)C (centres undefined) | 13.4 µM | 10.1 µM | 9.75 µM | 9.91 µM | 16.8 µM | 2.45 µM | 7.98 µM | 5.17 µM | 4.71 µM | 4.17 µM | 12.8 µM | 1.52 µM | 5.94 µM | 22 µM | 17.8 µM |
| COC(=O)C(=O)C(C(=O)OC)C(=O)C(=O)Nc1cc(Cl)c(C)cc1S(=O)(=O)O (centres undefined) | > 100 µM | > 100 µM | > 100 µM | > 100 µM | > 100 µM | > 100 µM | > 100 µM | > 100 µM | > 100 µM | > 100 µM | > 100 µM | > 100 µM | > 100 µM | – | – |
| COP12(OC)NC(=O)OC1(C(F)(F)F)c1ccccc1O2 (centres undefined) | > 100 µM | > 100 µM | > 100 µM | > 100 µM | > 100 µM | > 100 µM | > 100 µM | – | > 100 µM | > 100 µM | > 100 µM | > 100 µM | – | – | – |
| CCOC(=O)/C(C1=NCCN1C)=C(\O)c1ccccc1 | > 100 µM | > 100 µM | – | > 100 µM | > 100 µM | – | > 100 µM | > 100 µM | > 100 µM | > 100 µM | > 100 µM | > 100 µM | > 100 µM | – | – |
| N#Cc1ccc(C2OCC3CC=CCC3CO2)cc1 (centres undefined) | > 100 µM | > 100 µM | > 100 µM | > 100 µM | > 100 µM | – | > 100 µM | > 100 µM | > 100 µM | > 100 µM | > 100 µM | > 100 µM | > 100 µM | > 100 µM | – |
| c1cc2c(cc1C1OCC3C(c4ccc5c(c4)OCO5)OCC13)OCO2 (centres undefined) | > 100 µM | > 100 µM | > 100 µM | > 100 µM | 99.8 µM | – | > 100 µM | > 100 µM | > 100 µM | > 100 µM | > 100 µM | > 100 µM | > 100 µM | – | – |
| CN1CCS(=O)(=O)NC(Cc2ccccc2)C(=O)N2CCCC2C1=O (centres undefined) | > 100 µM | > 100 µM | > 100 µM | > 100 µM | > 100 µM | > 100 µM | > 100 µM | > 100 µM | > 100 µM | > 100 µM | > 100 µM | > 100 µM | > 100 µM | – | – |
| O=C1c2ccccc2C(=O)c2c1oc1cc(O)c(Cl)cc21 | 19.5 µM | 0.445 µM | 6.1 µM | 6.79 µM | 20.2 µM | 10.8 µM | > 46.3 µM | 21.7 µM | 9.46 µM | 31.9 µM | 19.5 µM | 31.3 µM | 6.79 µM | – | 15.5 µM |

— PubChem BioAssay (NCI)
